The record followed here is patent US8847018B2, “Plants tolerant to HPPD inhibitor herbicides” (Bayer CropScience AG, priority 2009, dated 2014).

The structures appear in SMILES notation. Where “and” joins values, the source holds several entries; their conditions need not be identical. Equal entries are not always repeated.

Assay [1] relates to Rhodococcus HPPD SEQ ID No. 19 (FMP23e). Briefly: biochemical. It is filed as biochemical, Rhodococcus sp. (strain RHA1), isolate ro02040. The settings on record: SEQ ID No. 19.
Assay [2] concerns tobacco plants containing FMP23e (HPPD FMP23). The assay is described as follows: Glasshouse trial, herbicidal damage on T1 tobacco. It is filed as in vivo, Nicotiana tabacum. Particulars: 7 DAT, 100 g AI/ha spray; FMP23e line 188, single T1 plants. The procedure: T0 Tobacco plants containing either the gene from Arabidopsis coding for HPPD or the gene FMP22e from Rhodococcus sp. (strain RHA1), isolate ro03041 coding for FMP22 HPPD, or the gene FMP23e from Rhodococcus sp. (strain RHA1), isolate ro02040 mentioned above (Example 3), were transferred to the glasshouse (28/20° C.), to develop further and produce seeds. Those seeds were harvested and put on soil (ED73 mixed with sand and osmocote Pro) to germinate in the glasshouse (28/20° C.). Three to four weeks later, plantlets were transferred to single pots containing the soil mentioned above. Two weeks later, plants of a size 4-6 cm diameter were sprayed with either • tembotrione at 100 gAl/ha prepared from a WP20 (wettable powder 20%) formulation supplemented with ammonium sulfate and methyl ester raps oil, or • isoxaflutole at 100 gAl/ha prepared from a WP20 formulation supplemented with ammonium sulfate and methyl ester raps oil, or • bicyclopyrone at 100 gAl/ha prepared from a WP20 formulation supplemented with ammonium sulfate and methyl ester raps oil, or • “blind formulation” made from a WP20 formulation without active ingredient (Al) supplemented with ammonium sulfate and methyl ester raps oil, and were then transferred to a growth chamber with adequate light conditions (20000 Lux).

For assay [3], the system named is T0 tobacco plants containing FMP22t. Briefly: Response of T0 tobacco plants to tembotrione. It is filed as in vivo, Nicotiana tabacum. The settings on record: 100 g AI/ha, two weeks after treatment. The procedure: (§1) As an example, rooted plants containing the T-DNA PromCaMV35S-OTP-HIS6-FMP22t-TerCaMV35S or containing the T-DNA PromCaMV35S-OTP-HIS6-FMP23t-TerCaMV35S, are transferred to the greenhouse under standard growth conditions. Following a period of acclimation of two weeks, the T0 plants are treated with a mixture containing 100 g tembotrione/ha prepared from a WP20 (wettable powder 20%) formulation supplemented with ammonium sulfate and methyl ester raps oil.
(§2) Two weeks after the treatment, the symptoms due to the application of the herbicides are evaluated. The plants are classified in four categories. The treated plants evaluated as “0” are looking like the untreated tobacco plants. The plants evaluated as “1” display temporarily light bleaching phenotype due to the application of the herbicides. The plants evaluated as “2” display permanent light to strong bleaching symptoms. Finally the plants evalutated as “3” are looking like wild type tobacco plants submitted to the same treatment.

Assay [4] deals with T0 tobacco plants containing FMP23t. The assay is described as follows: Response of T0 tobacco plants to tembotrione. It is filed as in vivo, Nicotiana tabacum. The settings on record: 100 g AI/ha, two weeks after treatment. As for the experimental part: as §1, §2
For assay [5], the system named is rice shoots containing FMP22e. Briefly: Bleaching of rice shoots on MS/2 with tembotrione. The settings on record: 2 weeks. It is filed as cell-based. As for the experimental part: (§3) Rice transformation is achieved using methods well known in the art. Briefly, the Agrobacterium tumefaciens mediated transformation of rice was performed using immature embryos, from the restorer line 6G4317. Briefly, panicles from donor plants were harvested 8-12 days after pollination. The lemma of the immature seed was removed. Seeds were thereafter sterilized using a NaOCl based solution and Tween. The seeds were preinduced with […]. Agrobacterium tumefaciens cells are then co-cultivated with the preinduced seeds in presence of acetosyringone for 4 days at 24° C. in the dark. Thereafter, coleoptile from embryos are removed and washed, then put on a media supplemented with phosphinothricin for 3 weeks at 28° C. under a photoperiod rhythm of 16 hours. Then the growing calli were cut off from the embryos, and transferred to fresh media containing triacillin, phosphinothricin, L-proline and copper (II) sulfate.
(§4) For each callusline and per Tembotrione concentration, 3 shoots, and randomly isolated from different callus pieces, were transferred to MS/2 with Tembotrione. As a general rule, transfer of the shoots from regeneration medium to MS/2 occurred 9 weeks after calli had been put on regeneration medium.
(§5) Cultures were incubated at 26.5° C. (16 hrs. photoperiod) and evaluation of symptoms occurred 2 weeks later.
(§6) New developing leaves of the shoots transferred have been scored on the basis of bleaching and categorized in 3 groups:
(§7) Within the category ‘intermediate bleaching’ a distinction has been made between shoots having new leaves showing only very little bleaching symptoms and thus tending to green leaves, and shoots with new leaves almost completely bleached.

Assay [6] relates to rice shoots containing FMP23e. Briefly: Bleaching of rice shoots on MS/2 with tembotrione. It is filed as cell-based. Particulars: 2 weeks. The procedure:
as §3, §4, §5, §6, §7

Assay [7] relates to rice plants containing FMP22e. Briefly: Response to tembotrione in glasshouse trials, T0 rice. It is filed as in vivo. The settings on record: 100 g AI/ha, 7 DAT. The procedure:
(§8) T0 rooted plantlets (either selected on phosphinothricin alone or on phosphinothricin supplemented with tembotrione) were transferred to soil in the glasshouse. Following an acclimation period, sufficiently grown plants were treated with the different HPPD inhibitor herbicides. As an example, T0 plants were sprayed with tembotrione of formulation type WP20 100 g Al/ha supplemented with ammonium sulfate and methyl ester raps oil. Seven days after the spray application, the symptoms due to the application of the herbicide were evaluated and compared the symptoms observed on wild type plants submitted to the same treatment.
(§9) The plants were classified in three categories based on the phenotype developed in response to the herbicide seven days after the treatment.

Assay [8] relates to rice plants containing FMP23e. The description is as above. It is filed as in vivo. Particulars: 100 g AI/ha, 7 DAT. As for the experimental part:
as §8, §9

Assay [9] concerns the target T1, Arabidopsis thaliana HPPD SEQ ID No. 10 (Arabidopsis thaliana, UniProt P93836).
T1 sequence (P93836 with tags, fused parts or gaps): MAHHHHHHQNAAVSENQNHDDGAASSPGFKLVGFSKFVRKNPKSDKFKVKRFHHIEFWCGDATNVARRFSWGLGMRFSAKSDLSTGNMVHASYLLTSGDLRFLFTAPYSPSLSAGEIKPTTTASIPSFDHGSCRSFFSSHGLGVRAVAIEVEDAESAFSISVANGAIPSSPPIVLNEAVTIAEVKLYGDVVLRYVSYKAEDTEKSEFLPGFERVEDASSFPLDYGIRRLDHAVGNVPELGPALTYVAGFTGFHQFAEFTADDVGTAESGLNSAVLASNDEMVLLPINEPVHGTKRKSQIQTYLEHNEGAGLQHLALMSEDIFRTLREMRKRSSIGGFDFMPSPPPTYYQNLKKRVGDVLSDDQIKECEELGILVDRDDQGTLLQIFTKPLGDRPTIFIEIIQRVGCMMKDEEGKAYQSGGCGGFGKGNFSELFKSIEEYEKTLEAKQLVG
The assay is described as follows: HPLC assay of HPPD in vitro kinetic properties.
Protocol: All assays were started by the addition of HPPD enzyme to the assay mixture and stopped at a series of times between 0 and 240 s by addition of 200 μl of the reaction mixture to reaction assay tubes containing 20 μl 10% perchloric acid. Precipitated protein was pelleted by a 5 minute centrifugation at 10,000 g. […] For Km and Vmax value determinations the initial rates of the HPPD reaction at different substrate concentrations were determined from plots of HGA formed versus time and fitted to the Michaelis-Menten equation for unireactant enzymes using the ID Business Solutions Ltd. (idbs.com) XLfit software suite.

Take `CS(=O)(=O)c1ccc(C(=O)C2C(=O)CCCC2=O)c(Cl)c1COCC(F)(F)F` [Tembotrione, 2-[2-chloro-4-(methylsulfonyl)-3-[(2,2,2,-tri-fluoroethoxy)methyl]benzoyl]-1,3-cyclo-hexanedione]: the pI50 in [1] (2 mM HPP, 3 minutes incubation) was found to be 5.1. In addition, the “percentage of inhibition compared to activity in absence of the inhibitor” value in assay [1] (5.0 × 10^−6 M inhibitor) is 70%. Further, the “% injury” value in [2] is 0% and 5%. Also, in assay [3], the “number of plants in category 0 (looking like untreated tobacco plants)” value turned out to be 4, the “number of plants in category 1 (temporarily light bleaching)” value was determined as 2, the “number of plants in category 2 (permanent light to strong bleaching)” value stood at 5 and the “number of plants in category 3 (like treated wild type tobacco plants)” value was 3. For the same molecule, in assay [4], the “number of plants in category 0 (looking like untreated tobacco plants)” value is given as 5 and the “number of plants in category 3 (like treated wild type tobacco plants)” value is listed as 4. Further, in assay [5] (1 μM), the “N° of shoots completely bleached” value was determined as 14, the “N° of shoots with intermediate bleaching” value is 9 and the “N° of shoots without bleaching” value is 35. Moreover, in assay [5] (5 μM), the “N° of shoots completely bleached” value is reported as 16, the “N° of shoots with intermediate bleaching” value is recorded as 38 and the “N° of shoots without bleaching” value was determined as 6. Further, in assay [6] (1 μM), the “N° of shoots completely bleached” value stood at 14, the “N° of shoots with intermediate bleaching” value is 5 and the “N° of shoots without bleaching” value is reported as 39. Further, in [6] (5 μM), the “N° of shoots completely bleached” value turned out to be 25 and the “N° of shoots with intermediate bleaching” value stood at 20. For the same molecule, the “Class II (number of plants, temporary light injuries, injury: 10-40%)” value in assay [7] was 19. In addition, in [8], the “Class II (number of plants, temporary light injuries, injury: 10-40%)” value was found to be 10 and the “Class III (number of plants, strong injuries, injury: 41-100%)” value was 7. In assay [9], this molecule yielded a Ki of 15 nM.

For orientation: Ki means a dissociation constant, usually derived from enzyme kinetics or from competition with a known ligand. A lower Ki goes with tighter binding.
